# Test results taken from PMC4207540 (Journal of Medicinal Chemistry, 2014).
# Key:
# [1] = target: IDH1(R132H) (Homo sapiens, UniProt O75874, R132H); conditions: for fold less active than compound 2 against IDH1(R132H): relative to compound 2
# [2] = tested on: HT1080 cells; test: D2HG production inhibition in HT1080 cells; conditions: Homo sapiens, HT-1080, 48 h, read-out: IC50 for inhibition of D2HG
# [3] = target: T1, WT IDH1 (Homo sapiens, UniProt O75874)
# [4] = target: T1, WT IDH1; test: biochemical
# [5] = tested on: WI-38 fibroblast cells; test: Cytotoxicity assay; type: cell-based
# [6] = tested on: BXD-4687; type: cell-based, human
# [7] = tested on: BXD-3752; type: cell-based, human
# [8] = tested on: BT-142 glioma cells
# [9] = tested on: breast cancer and leukemia cells; conditions: cited from earlier work
# T1 sequence (O75874 whole entry): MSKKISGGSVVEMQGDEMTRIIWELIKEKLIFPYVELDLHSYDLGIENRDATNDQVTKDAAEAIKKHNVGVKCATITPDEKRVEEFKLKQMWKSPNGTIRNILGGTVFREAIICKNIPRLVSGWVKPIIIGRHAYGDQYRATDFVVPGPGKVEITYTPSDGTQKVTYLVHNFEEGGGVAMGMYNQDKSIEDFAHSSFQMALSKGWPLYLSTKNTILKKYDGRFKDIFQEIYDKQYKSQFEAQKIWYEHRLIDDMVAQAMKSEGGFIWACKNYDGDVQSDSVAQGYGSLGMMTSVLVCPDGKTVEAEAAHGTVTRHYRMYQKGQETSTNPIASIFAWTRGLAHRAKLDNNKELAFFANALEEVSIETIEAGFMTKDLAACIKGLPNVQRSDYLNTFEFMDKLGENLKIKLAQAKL
# IDH1(R132H), sequence (O75874 whole entry R132H): as the sequence (O75874 whole entry) above, with R132H counted along it
smiles,measurement,setting,value
Cc1ccn(O)c(=O)c1Cc1ccccc1 [Compound 30],fold less active than compound 2 against IDH1(R132H),[1],50 fold
CC(C)c1cc(Cc2ccccc2)n(O)c(=O)c1 [Compound 33],IC50,[2],> 30 µM
same,"inhibitory activity against WT IDH1, in words",[3],do not inhibit the enzyme
COc1cccc(Cc2cc(C)cc(=O)n2O)c1 [Compound 39],"inhibitory activity against WT IDH1, in words",[3],do not inhibit the enzyme
O=c1cc(O)cc(Cc2ccccc2)n1O [Compound 34],Ki,[4],> 30 µM
same,IC50,[2],9.7 ± 1.8 µM
same,"inhibitory activity against WT IDH1, in words",[3],do not inhibit the enzyme
O=c1ccc(CCc2ccccc2)cn1O [Compound 10],"inhibitory activity against IDH1(R132H), in words",[1],lose the inhibitory activity
Cc1cc(Cc2ccccc2)oc(=O)c1 [Compound 28],"inhibitory activity against IDH1(R132H), in words",[1],inactive
Cc1cc(Cc2ccccc2)n(O)c(=O)c1 [Compound 2],EC50,"[5]; Homo sapiens, WI-38, 48 h, read-out: EC50 against WI-38",> 50 µM
O=c1ccc(Cc2ccccc2)c[nH]1 [Compound 21],"inhibitory activity against IDH1(R132H), in words",[1],lack of activity
Cc1cc(Cc2c(F)c(F)c(F)c(F)c2F)n(O)c(=O)c1 [Compound 44],fold less active than compound 2 against IDH1(R132H),[1],~10 fold
O=c1ccc(-c2ccccc2)cn1O [Compound 5],"inhibitory activity against IDH1(R132H), in words",[1],very weak activity
Cc1cc(Cc2cccc(O)c2)n(O)c(=O)c1 [Compound 40],"inhibitory activity against WT IDH1, in words",[3],do not inhibit the enzyme
Cc1cc(Cc2ccccc2O)n(O)c(=O)c1 [Compound 42],fold less active than compound 2 against IDH1(R132H),[1],~2 fold
Cc1ccccc1C(C(=O)NC1CCCCC1)N(C(=O)Cn1ccnc1C)c1cccc(F)c1 (stereo not drawn) [Compound 1],"activity against WI-38, in words",[5],no activity
same,"activity against BXD-4687, in words",[6],no activity
same,"activity against BXD-3752, in words",[7],no activity
Cc1cc(COc2ccccc2)n(O)c(=O)c1 [Compound 19],fold less active than compound 2 against IDH1(R132H),[1],~4 fold
CC(c1ccccc1)c1cccc(=O)n1O (stereo not drawn) [Compound 16],"inhibitory activity against IDH1(R132H), in words",[1],inactive
Cc1cc(Cc2ccccc2)n(N)c(=O)c1 [Compound 27],fold less active than compound 2 against IDH1(R132H),[1],20 fold
Cc1cc(Cc2cccc(F)c2)n(O)c(=O)c1 [Compound 43],fold less active than compound 2 against IDH1(R132H),[1],~10 fold
O=c1cccc(Cc2ccccc2)n1O [Compound 7],"inhibitory activity against WT IDH1, in words",[3],do not inhibit the enzyme
O=c1cccc(-c2ccccc2)n1O [Compound 15],"inhibitory activity against IDH1(R132H), in words",[1],inactive
COc1ccccc1Cc1cc(C)cc(=O)n1O [Compound 41],fold less active than compound 2 against IDH1(R132H),[1],~2 fold
COc1ccc(-c2ccc(Cc3cc(C)cc(=O)n3O)cc2)cc1 [Compound 58],"selectivity for BT-142 over glioma cells without IDH1 mutation (BXD-4687, -3752)",[8],> 10 fold
O=c1ccn(O)c(=O)n1Cc1ccccc1 [Compound 25],"inhibitory activity against IDH1(R132H), in words",[1],lack of activity
O=c1ccc(CCCc2ccccc2)cn1O [Compound 11],"inhibitory activity against IDH1(R132H), in words",[1],lose the inhibitory activity
Cc1cc(C)n(O)c(=O)c1 [Compound 20],"inhibitory activity against IDH1(R132H), in words",[1],inactive
O=c1n(O)ccn1Cc1ccccc1 [Compound 26],"inhibitory activity against IDH1(R132H), in words",[1],lack of activity
Cc1cc(Cc2ccccc2)oc(=S)c1 [Compound 29],"inhibitory activity against IDH1(R132H), in words",[1],inactive
"Cc1cc(C2CCCCC2)n(O)c(=O)c1 [Compound 9, Ciclopirox, reference compound]","inhibitory activity against IDH1(R132H), in words",[1],inactive
same,antiproliferative activity,[9],low micromolar
